{"source": "patent US12171229B2", "about": "“Heteroaryl-triazole and heteroaryl-tetrazole compounds as pesticides” (BAYER AKTIENGESELLSCHAFT, priority 2018, dated 2024)", "format_in_all_cases": "in vivo", "key": {"[1]": {"tested_on": "Spodoptera frugiperda", "assay": "Spodoptera frugiperda spray test", "conditions": "168 h, after 7 days, larvae on maize leaf sections", "description": "Spodoptera frugiperda—Spray Test\n(§1) To produce a suitable preparation of active compound, 1 part by weight of active compound is mixed with the stated amount of solvents and is diluted with water, containing an emulsifier concentration of 1000 ppm, to the desired concentration. Further test concentrations are prepared by dilution with emulsifier containing water.\nMaize (Zea mays) leaf sections are sprayed with a preparation of the active ingredient of the desired concentration. Once dry, the leaf sections are infested with fall armyworm larvae (Spodoptera frugiperda).\nAfter 7 days mortality in % is determined. 100% means all caterpillars have been killed and 0% means none of the caterpillars have been killed."}, "[2]": {"tested_on": "Diabrotica balteata", "assay": "Diabrotica balteata spray test", "conditions": "Diabrotica balteata, in Triticum aestivum, 168 h, after 7 days, larvae on wheat seeds, read-out: efficacy (seedlings grown up); for pest or weed control at 80 µg/disc, 250 g/ha: 80 μg/well (=250 g/ha); for pest or weed control at 160 µg/disc, 500 g/ha: 160 μg/well (=500 g/ha)", "description": "Diabrotica balteata—Spray Test [table] To produce a suitable preparation of active compound, 1 part by weight of active compound is mixed with the stated amount of solvent, and the concentrate is diluted with water, containing an emulsifier concentration of 1000 ppm, to the desired concentration. Further test concentrations are prepared by dilution with emulsifier containing water. Soaked wheat seeds (Triticum aestivum) are placed in a multiple well plate filled with agar and some water and are incubated for 1 day to germinate (5 seeds per well). The germinated wheat seeds are sprayed with a test solution containing the desired concentration of the active ingredient. Afterwards each unit is infected with 10-20 larvae of the banded cucumber beetle (Diabrotica balteata). After 7 days efficacy in % is determined. 100% means all the seedlings have grown up like in the untreated, uninfected control; 0% means none of the seedlings have grown."}, "[3]": {"tested_on": "Boophilus microplus", "assay": "Boophilus microplus injection test", "conditions": "Rhipicephalus microplus, 168 h; 20 μg/animal injected into the abdomen; adult engorged female ticks; egg deposition after 7 days; read-out: efficacy (infertile eggs)", "description": "Boophilus Microplus—Injection Test Solvent: dimethyl sulfoxide To produce a suitable preparation of active compound, 10 mg of active compound are dissolved in 0.5 ml solvent, and the concentrate is diluted with solvent to the desired concentration. Five adult engorged female ticks (Boophilus microplus) are injected with 1 μl compound solution into the abdomen. The ticks are transferred into replica plates and incubated in a climate chamber. After 7 days egg deposition of fertile eggs is monitored. Eggs where fertility is not visible are stored in a climate chamber till hatching after about 42 days. An efficacy of 100% means all eggs are infertile; 0% means all eggs are fertile."}, "[4]": {"tested_on": "Ctenocephalides felis", "assay": "Ctenocephalides felis oral test", "conditions": "48 h, 100 ppm in cattle blood, after 2 days, adult unfed cat fleas", "description": "Ctenocephalides Felis—Oral Test\nSolvent: dimethyl sulfoxide\nTo produce a suitable preparation of active compound, 10 mg of active compound are dissolved in 0.5 ml solvent, and the concentrate is diluted with cattle blood to the desired concentration.\nApproximately 20 adult unfed cat fleas (Ctenocephalides felis) are placed in flea chambers. The blood chamber, sealed with parafilm on the bottom, are filled with cattle blood supplied with compound solution and placed on the gauze covered top of the flea chamber, so that the fleas are able to suck the blood. The blood chamber is heated to 37° C. whereas the flea chamber is kept at room temperature.\nAfter 2 days mortality in % is determined. 100% means all the fleas have been killed; 0% means none of the fleas have been killed."}, "[5]": {"tested_on": "Nezara viridula", "assay": "Nezara viridula spray test", "conditions": "96 h, 500 g/ha, after 4 days, larvae on barley plants", "description": "Nezara viridula—Spray Test\nas §1, with “solvent,” for “solvents”, “and the concentrate” for “and”\nBarley plants (Hordeum vulgare) infested with larvae of the southern green stink bug (Nezara viridula) are sprayed with a test solution containing the desired concentration of the active ingredient.\nAfter 4 days mortality in % is determined. 100% means all the stink bugs have been killed: 0% means none of the stink bugs have been killed."}}, "data": [{"smiles": "C[C@H](NC(=O)c1cc(Cl)cc(C(F)(F)F)c1)c1ncnn1-c1nc(C(F)F)c(Cl)s1", "note": "[Example I-022]", "values": [{"measurement": "mortality at 500 g/ha", "setting": "[1]", "value": 83, "unit": "%"}, {"measurement": "pest or weed control at 80 µg/disc, 250 g/ha", "setting": "[2]", "value": 100, "unit": "%"}, {"measurement": "pest or weed control at 160 µg/disc, 500 g/ha", "setting": "[2]", "value": 100, "unit": "%"}, {"measurement": "pest or weed control at 0.02 mg", "setting": "[3]", "value": 100, "unit": "%"}]}, {"smiles": "C[C@H](NC(=O)c1cc(Cl)cc(C(F)(F)F)c1)c1ncnn1-c1ccc(-n2cncn2)cn1", "note": "[Example I-087]", "values": [{"measurement": "mortality at 100 g/ha", "setting": "[1]", "value": 100, "unit": "%"}, {"measurement": "mortality at 500 g/ha", "setting": "[1]", "value": 100, "unit": "%"}]}, {"smiles": "CC[C@H](NC(=O)c1cc(Cl)cc(OC(F)(F)F)c1)c1ncnn1-c1ccc(NC(=O)C2CC2)cn1", "note": "[Example I-096]", "values": [{"measurement": "pest or weed control at 80 µg/disc, 250 g/ha", "setting": "[2]", "value": 100, "unit": "%"}, {"measurement": "pest or weed control at 160 µg/disc, 500 g/ha", "setting": "[2]", "value": 100, "unit": "%"}, {"measurement": "mortality at 100 ppm", "setting": "[4]", "value": 100, "unit": "%"}]}, {"smiles": "C[C@H](NC(=O)c1cc(Cl)cc(C(F)(F)F)c1)c1ncnn1-c1ccc(-n2ccnc2)cn1", "note": "[Example I-086]", "values": [{"measurement": "mortality at 500 g/ha", "setting": "[1]", "value": 83, "unit": "%"}, {"measurement": "pest or weed control at 80 µg/disc, 250 g/ha", "setting": "[2]", "value": 100, "unit": "%"}, {"measurement": "mortality at 100 ppm", "setting": "[4]", "value": 100, "unit": "%"}]}, {"smiles": "CC[C@H](NC(=O)c1cc(C(F)(F)F)cc(C(F)(F)F)c1)c1ncnn1-c1ccc(C#N)cn1", "note": "[Example I-068]", "values": [{"measurement": "mortality at 100 g/ha", "setting": "[1]", "value": 100, "unit": "%"}, {"measurement": "mortality at 500 g/ha", "setting": "[1]", "value": 100, "unit": "%"}, {"measurement": "pest or weed control at 80 µg/disc, 250 g/ha", "setting": "[2]", "value": 100, "unit": "%"}, {"measurement": "pest or weed control at 160 µg/disc, 500 g/ha", "setting": "[2]", "value": 100, "unit": "%"}, {"measurement": "pest or weed control at 0.02 mg", "setting": "[3]", "value": 100, "unit": "%"}]}, {"smiles": "C[C@H](NC(=O)c1cc(Cl)cc(C(F)(F)F)c1)c1ncnn1-c1nc(-c2ccccc2F)cs1", "note": "[Example I-043]", "values": [{"measurement": "pest or weed control at 160 µg/disc, 500 g/ha", "setting": "[2]", "value": 100, "unit": "%"}]}, {"smiles": "C[C@H](NC(=O)c1cc(Cl)cc(C(F)(F)F)c1)c1ncnn1-c1cn(C)nc1C(F)(F)F", "note": "[Example I-044]", "values": [{"measurement": "pest or weed control at 80 µg/disc, 250 g/ha", "setting": "[2]", "value": 100, "unit": "%"}, {"measurement": "pest or weed control at 160 µg/disc, 500 g/ha", "setting": "[2]", "value": 80, "unit": "%"}, {"measurement": "mortality at 100 ppm", "setting": "[4]", "value": 100, "unit": "%"}, {"measurement": "pest or weed control at 0.02 mg", "setting": "[3]", "value": 100, "unit": "%"}]}, {"smiles": "C[C@H](NC(=O)c1cc(Cl)cc(C(F)(F)F)c1)c1ncnn1-c1cccc(C#N)n1", "note": "[Example I-055]", "values": [{"measurement": "pest or weed control at 0.02 mg", "setting": "[3]", "value": 100, "unit": "%"}]}, {"smiles": "COc1cc(C(=O)N[C@@H](C)c2ncnn2-c2ccc(C#N)cn2)cc(C(F)(F)F)c1", "note": "[Example I-092]", "values": [{"measurement": "mortality at 100 g/ha", "setting": "[1]", "value": 100, "unit": "%"}, {"measurement": "mortality at 500 g/ha", "setting": "[1]", "value": 100, "unit": "%"}, {"measurement": "pest or weed control at 80 µg/disc, 250 g/ha", "setting": "[2]", "value": 100, "unit": "%"}, {"measurement": "pest or weed control at 160 µg/disc, 500 g/ha", "setting": "[2]", "value": 100, "unit": "%"}, {"measurement": "mortality at 100 ppm", "setting": "[4]", "value": 100, "unit": "%"}, {"measurement": "mortality at 500 g/ha", "setting": "[5]", "value": 90, "unit": "%"}]}, {"smiles": "CC(C)C(=S)Nc1ccc(-n2ncnc2[C@H](C)NC(=O)c2cc(Cl)cc(C(F)(F)F)c2)nc1", "note": "[Example I-099]", "values": [{"measurement": "mortality at 500 g/ha", "setting": "[1]", "value": 100, "unit": "%"}, {"measurement": "pest or weed control at 80 µg/disc, 250 g/ha", "setting": "[2]", "value": 100, "unit": "%"}, {"measurement": "pest or weed control at 160 µg/disc, 500 g/ha", "setting": "[2]", "value": 100, "unit": "%"}, {"measurement": "mortality at 100 ppm", "setting": "[4]", "value": 100, "unit": "%"}]}, {"smiles": "CC[C@H](NC(=O)c1cc(Cl)cc(OC(F)(F)F)c1)c1ncnn1-c1ccc(NC(C)=O)cn1", "note": "[Example I-095]", "values": [{"measurement": "mortality at 100 ppm", "setting": "[4]", "value": 100, "unit": "%"}]}, {"smiles": "C[C@H](NC(=O)c1cc(F)cc(C(F)(F)F)c1)c1ncnn1-c1nc2ccccc2o1", "note": "[Example I-058]", "values": [{"measurement": "mortality at 100 ppm", "setting": "[4]", "value": 100, "unit": "%"}, {"measurement": "pest or weed control at 0.02 mg", "setting": "[3]", "value": 100, "unit": "%"}]}, {"smiles": "CC(c1ncnn1-c1cnc2ccccc2n1)N(CC1CC1)C(=O)c1cc(Cl)cc(C(F)(F)F)c1", "note": "(stereo not shown) [Example I-004]", "values": [{"measurement": "pest or weed control at 160 µg/disc, 500 g/ha", "setting": "[2]", "value": 100, "unit": "%"}]}, {"smiles": "C[C@H](NC(=O)c1cc(Cl)cc(C(F)(F)F)c1)c1ncnn1-c1cn(C)nc1C(F)F", "note": "[Example I-032]", "values": [{"measurement": "pest or weed control at 80 µg/disc, 250 g/ha", "setting": "[2]", "value": 100, "unit": "%"}, {"measurement": "pest or weed control at 160 µg/disc, 500 g/ha", "setting": "[2]", "value": 100, "unit": "%"}, {"measurement": "mortality at 100 ppm", "setting": "[4]", "value": 100, "unit": "%"}, {"measurement": "pest or weed control at 0.02 mg", "setting": "[3]", "value": 100, "unit": "%"}]}, {"smiles": "CC(NC(=O)c1cc(Cl)cc(C(F)(F)F)c1)c1ncnn1C1=NCCS1", "note": "(stereo not shown) [Example I-075]", "values": [{"measurement": "pest or weed control at 80 µg/disc, 250 g/ha", "setting": "[2]", "value": 100, "unit": "%"}, {"measurement": "pest or weed control at 160 µg/disc, 500 g/ha", "setting": "[2]", "value": 100, "unit": "%"}, {"measurement": "mortality at 100 ppm", "setting": "[4]", "value": 100, "unit": "%"}]}, {"smiles": "COC(=O)c1ccc(-n2ncnc2[C@H](C)NC(=O)c2cc(Cl)cc(C(F)(F)F)c2)nc1", "note": "[Example I-031]", "values": [{"measurement": "pest or weed control at 160 µg/disc, 500 g/ha", "setting": "[2]", "value": 100, "unit": "%"}, {"measurement": "pest or weed control at 0.02 mg", "setting": "[3]", "value": 100, "unit": "%"}]}]}
